The text below walks through data of paper PMC11467779, “New anti-ovarian cancer quinolone derivatives acting by modulating microRNA processing machinery” (RSC Medicinal Chemistry, 2024).

In one data set the test system is SKOV-3 cell line. Nature of the data set: Antiproliferative effect against the SKOV-3 cell line (GI50, cell count). Type of data set: cell-based, human. To be noted: for GI50: Homo sapiens, SK-OV-3, 72 h. As for the experimental part: (§1) SKOV-3, A2780 and A2780 CIS were cultured and maintained, as previously described,[50] at 37 °C in RPMI 1640 medium (Euroclone) supplemented with 10% fetal bovine serum (FBS; Euroclone), L-glutamine and penicillin/streptomycin (SIGMA-ALDRICH). OVCA433, HEK-293T, HeLa, HCCLM3, SK-Hep-1, MCF-7, A549 and HCT-116 cells were maintained in DMEM medium (Euroclone) containing 10% FBS (Euroclone), L-glutamine and penicillin/streptomycin (SIGMA-ALDRICH). Wi-38 cells were cultured in DMEM medium (Euroclone) supplemented with 10% FBS (Euroclone), L-glutamine and penicillin/streptomycin (SIGMA-ALDRICH), and 1% non-essential amino acids (NEAA; Euroclone). The cultures were maintained in a constant temperature incubator at 37 °C with 5% CO2. […] Once cell adhesion had been promoted, the compounds were added to the culture medium. After 72 hours of treatment, the cells were counted, and the data analyzed by linear regression. Each experiment was carried out three times in triplicate and three separate cell counts were made for each sample. […] Afterwards, the concentration range was narrowed to the relative value obtained in the first evaluation in order to obtain an accurate value.

Data set [1] in a line: Cytotoxicity against non-tumor Wi-38 cells (CC50, cell count). It counts as cell-based. To be noted: human, Wi-38 cells (non-tumor), 50% cytotoxicity concentration, 72 hours of treatment. How it is done:
as §1

In a further data set the test system is miRNA processing / RNAi. Details: method as in PMID 18641635. Particulars: cited from earlier work.
The subject of data set [2] is cisplatin-resistant A2780 cells (A2780 CIS). Nature of the data set: Viable cells of cisplatin-resistant A2780 (A2780 CIS) treated with 33, cisplatin or both. Type of data set: cell-based, human. Particulars: cisplatin 1 μM, 48 hours. How it is done:
A2780 and SKOV-3 cells were treated with 50 μM of 33 for 72 h before RNA and protein extraction and expression analyses. A2780 and A2780 CIS were treated with 33 (30 μM) and/or cisplatin (1 μM, Sigma-Aldrich) for 48 hours while MCF-7, A549 and HCT-116 were treated with 33 (30 μM) for 72 hours. Total cell number and viability have been assessed using Trypan Blue Solution (Thermo Fisher Scientific) and Countess™ 3 Automated Cell Counter (Thermo Fisher Scientific).

The mark [3] stands for this setting: 50% cell growth inhibition, 72 hours of treatment, cell count, ND = activity not dose dependent.

Broadly, the GI50 is the concentration giving 50% growth inhibition. Read a low GI50 as more potent growth inhibition. In general, CC50 refers to the concentration that lowers cell viability or growth by half. Read a low CC50 as greater toxicity to the cells.

In the data set with SKOV-3 cell line (setting [3]), `Cn1cc(C(=O)O)c(=O)c2cc(N)c(N3CCN(c4nccs4)CC3)cc21` [Compound 8] gave a GI50 of 50 µM.
The same measure, in the same setting: in the case of `Cn1cc(C(=O)O)c(=O)c2ccc(N3CCN(c4nccs4)CC3)nc21` [Compound 9] it was 50 µM.
Same read-out and setting: in the case of `CN1CCN(c2c(F)cc3c(=O)c(C(=O)O)cn4c3c2SCC4)CC1` [Compound 10, rufloxacin, reference compound] it was 100 µM.
`CCn1cc(C(=O)O)c(=O)c2cc(N)c(N3CCc4ccccc4C3)c(C)c21` [Compound 11, 6-Amino-7-(3,4-dihydroisoquinolin-2(1H)-yl)-1-ethyl-8-methyl-4-oxo-1,4-dihydroquinoline-3-carboxylic acid]: the GI50 in the data set with SKOV-3 cell line (setting [3]) was found to be 13.1 ± 1.29 µM. For the same compound, the “fold more toxic against tumor cells (CC50 Wi-38 vs GI50 SKOV-3)” value in the data set with SKOV-3 cell line (SKOV-3 versus Wi-38) is on record as “approximately 4 fold”. In data set [1], this compound came in with a CC50 at 72 h of 53.5 ± 20.6 µM.
In the data set on SKOV-3 cell line (setting [3]), `Cc1c(N2CCC(c3ccccc3)CC2)c(N)cc2c(=O)c(C(=O)O)cn(C3CC3)c12` [Compound 12, 6-Amino-1-cyclopropyl-8-methyl-4-oxo-7-(4-phenylpiperidin-1-yl)-1,4-dihydroquinoline-3-carboxylic acid] gave a GI50 of 17.1 ± 2.61 µM. The compound also showed a CC50 at 72 h in data set [1] of 53 ± 14.9 µM.
`Cc1c(N2Cc3ccccc3C2)c(N)cc2c(=O)c(C(=O)O)cn(C3CC3)c12` [Compound 13, 6-Amino-1-cyclopropyl-7-(1,3-dihydro-2H-isoindol-2-yl)-8-methyl-4-oxo-1,4-dihydroquinoline-3-carboxylic acid] had a GI50 with SKOV-3 cell line (setting [3]) of 28.8 ± 4.11 µM.
Same read-out and setting: in the case of `Cc1c(NCCN2CCCCC2)c(N)cc2c(=O)c(C(=O)O)cn(C3CC3)c12` [Compound 14, 6-Amino-1-cyclopropyl-8-methyl-4-oxo-7-[(2-piperidin-1-ylethyl)amino]-1,4-dihydroquinoline-3-carboxylic acid] it was 103 ± 21.6 µM.
As to `Nc1cc2c(=O)c(C(=O)O)cn(C3CC3)c2cc1N1CCc2ccccc2C1` [Compound 15, 6-Amino-1-cyclopropyl-7-(3,4-dihydroisoquinolin-2(1H)-yl)-4-oxo-1,4-dihydroquinoline-3-carboxylic acid], in the data set on SKOV-3 cell line (setting [3]), halving of growth (GI50) required 13.2 ± 1.13 µM. In data set [1], this compound displayed a CC50 at 72 h of 36.3 ± 8.86 µM.
The corresponding values for `CCn1cc(C(=O)O)c(=O)c2cc(N)c(N3CCc4ccccc4C3)cc21` [Compound 16, 6-Amino-7-(3,4-dihydroisoquinolin-2(1H)-yl)-1-ethyl-4-oxo-1,4-dihydroquinoline-3-carboxylic acid] are 5.44 ± 0.13 µM and 8.19 ± 14.3 µM.
With `NC(=O)c1cn(C2CC2)c2cc(N3CCc4ccccc4C3)c(N)cc2c1=O` [Compound 17, 6-Amino-1-cyclopropyl-7-(3,4-dihydroisoquinolin-2(1H)-yl)-4-oxo-1,4-dihydroquinoline-3-carboxamide], the “GI50 SKOV-3” value in the data set on SKOV-3 cell line (setting [3]) is “completely inactive”.
`Nc1cc2c(=O)c(C(=O)O)cn(C3CC3)c2cc1N1CCc2ncncc2C1` [Compound 18, 6-Amino-1-cyclopropyl-7-(7,8-dihydropyrido[4,3-d]pyrimidin-6(5H)-yl)-4-oxo-1,4-dihydroquinoline-3-carboxylic acid] had a GI50 in the data set with SKOV-3 cell line (setting [3]) of 152 ± 3.05 µM.
The same measure, in the same setting: the value for `Nc1cc2c(=O)c(C(=O)O)cn(C3CC3)c2cc1N1CCc2nccnc2C1` [Compound 19, 6-Amino-1-cyclopropyl-7-(7,8-dihydropyrido[3,4-b]pyrazin-6(5H)-yl)-4-oxo-1,4-dihydroquinoline-3-carboxylic acid] was 104 ± 2.03 µM; that for `Nc1cc2c(=O)c(C(=O)O)cn(C3CC3)c2cc1N1CCNc2ccccc21` [Compound 20, 6-Amino-1-cyclopropyl-7-(3,4-dihydroquinoxalin-1(2H)-yl)-4-oxo-1,4-dihydroquinoline-3-carboxylic acid] was 65.4 ± 24.3 µM.
On to `Nc1cc2c(=O)c(C(=O)O)cn(C3CC3)c2cc1N1CCc2sccc2C1` [Compound 21, 6-Amino-1-cyclopropyl-7-(6,7-dihydrothieno[3,2-c]pyridin-5(4H)-yl)-4-oxo-1,4-dihydroquinoline-3-carboxylic acid], for which it took 23.7 ± 1.02 µM to inhibit growth in the data set with SKOV-3 cell line (setting [3]) by half (GI50). In data set [1], the midpoint of cytotoxicity, the CC50 at 72 h, lay at 103 ± 15.5 µM.
For `CC1c2ccccc2CCN1c1cc2c(cc1N)c(=O)c(C(=O)O)cn2C1CC1` (centres unmarked) [Compound 22, 6-Amino-1-cyclopropyl-7-(1-methyl-3,4-dihydroisoquinolin-2(1H)-yl)-4-oxo-1,4-dihydroquinoline-3-carboxylic acid], in that order: 18.5 ± 1.71 µM and 59.9 ± 5.95 µM.
For the compound `Nc1cc2c(=O)c(C(=O)O)cn(C3CC3)c2cc1N1Cc2ccccc2C[C@H]1CO` [Compound 23, 6-Amino-1-cyclopropyl-7-[(3S)-3-(hydroxymethyl)-3,4-dihydroisoquinolin-2(1H)-yl]-4-oxo-1,4-dihydroquinoline-3-carboxylic acid], growth in the data set on SKOV-3 cell line (setting [3]) was halved (GI50) at 46.2 ± 8.38 µM.
The compound `Nc1cc2c(=O)c(C(=O)O)cn(C3CC3)c2cc1N1CCC(c2ccccc2)CC1` [Compound 24, 6-Amino-1-cyclopropyl-4-oxo-7-(4-phenylpiperidin-1-yl)-1,4-dihydroquinoline-3-carboxylic acid] had a GI50 in the data set with SKOV-3 cell line (setting [3]) of 9.19 ± 1.05 µM. For the same compound, half-maximal cytotoxicity in data set [1] (CC50 at 72 h) was put at 45 ± 13.4 µM.
For `CCN(Cc1ccccc1)c1cc2c(cc1N)c(=O)c(C(=O)O)cn2C1CC1` [Compound 25, 6-Amino-7-[benzyl(ethyl)amino]-1-cyclopropyl-4-oxo-1,4-dihydroquinoline-3-carboxylic acid], in that order: 16 ± 2.94 µM and 79.7 ± 11.8 µM.
As to `Nc1cc2c(=O)c(C(=O)O)cn(C3CC3)c2cc1N(CCO)Cc1ccccc1` [Compound 26, 6-Amino-7-[benzyl(2-hydroxyethyl)amino]-1-cyclopropyl-4-oxo-1,4-dihydroquinoline-3-carboxylic acid], in the data set on SKOV-3 cell line (setting [3]), the GI50 was found to be 33.9 ± 6.43 µM. For the same compound, the “fold increase in GI50 SKOV-3 versus 25” value in the data set on SKOV-3 cell line (versus compound 25) was found to be 2 fold.
On to `O=C(O)c1cn(C2CC2)c2nc(N3CCc4ccccc4C3)c(F)cc2c1=O` [Compound 28, 1-Cyclopropyl-7-(3,4-dihydroisoquinolin-2(1H)-yl)-6-fluoro-4-oxo-1,4-dihydro-1,8-naphthyridine-3-carboxylic acid], for which the GI50 in the data set with SKOV-3 cell line (setting [3]) turned out to be 46.8 ± 7.44 µM.
`CCN(Cc1ccccc1)c1nc2c(cc1F)c(=O)c(C(=O)O)cn2CC` [Compound 29, 7-[Benzyl(ethyl)amino]-1-ethyl-6-fluoro-4-oxo-1,4-dihydro-1,8-naphthyridine-3-carboxylic acid] showed a GI50 with SKOV-3 cell line (setting [3]) of 16.2 ± 1.03 µM. Moreover, the midpoint of cytotoxicity in data set [1], the CC50 at 72 h, lay at 25.5 ± 11.5 µM.
For `CCn1cc(C(=O)O)c(=O)c2cc(F)c(N3CCC(c4ccccc4)CC3)nc21` [Compound 30, 1-Ethyl-6-fluoro-4-oxo-7-(4-phenylpiperidin-1-yl)-1,4-dihydro-1,8-naphthyridine-3-carboxylic acid], in that order: 8.34 ± 1.28 µM and 4.65 ± 5.96 µM.
For `CCn1cc(C(=O)O)c(=O)c2cc(F)c(N3CCc4ccccc4C3)c(C)c21` [Compound 31, 7-(3,4-Dihydroisoquinolin-2(1H)-yl)-1-ethyl-6-fluoro-8-methyl-4-oxo-1,4-dihydroquinoline-3-carboxylic acid], in that order: 14.9 ± 3.24 µM and 56.6 ± 37.4 µM.
For `Cc1c(N2CCc3ccccc3C2)c(F)cc2c(=O)c(C(=O)O)cn(C3CC3)c12` [Compound 32, 1-Cyclopropyl-7-(3,4-dihydroisoquinolin-2(1H)-yl)-6-fluoro-8-methyl-4-oxo-1,4-dihydroquinoline-3-carboxylic acid], in that order: 25 ± 6.04 µM and 90.7 ± 30.9 µM.
Turning to `O=C(O)c1cn(C2CC2)c2cc(N3CCNCC3)c(F)cc2c1=O` [ciprofloxacin], in the data set with miRNA processing / RNAi, the “RNAi enhancer / SMER effect” value is recorded as “very weak SMER”.
`N.N.[Cl][Pt][Cl]` [cisplatin, reference compound]: in data set [2], the “resistance of A2780 CIS to cisplatin compared to A2780” value is “significantly greater resistance to cisplatin”.
With `CC1COc2c(N3CCN(C)CC3)c(F)cc3c(=O)c(C(=O)O)cn1c23` (centres unmarked) [ofloxacin], the “RNAi enhancer / SMER effect” value with miRNA processing / RNAi was “did not show any significant RNAi enhancer effect”.
